Laboratory results reported in patent US10111897B2, “Compositions and methods for treating cancer with JAK2 activity” (Duke University, priority 2013, dated 2018).

Experiments:
[1] = tested on: HEL92.1.7 cells; assay: GI50 assay (Cell Titer Glo viability); format: cell-based, human; conditions: for sensitivity of parental and engineered Ras effector-activated cells (viability and apoptosis): HEL92.1.7 ORF-expressing derivatives, apoptosis at 48 hours; for resensitization of Ras-expressing cells to INCB, dual ERK and Akt inhibition: INCB with both VX-11E (2 μM) and MK-2206 (10 μM)
Procedure: (§1) Cells were seeded into 6-well plates and infected with the desired ORF activating allele or control vector. Lentiviruses were produced and applied as previously described (42). Following two days of puromycin selection (2 μg/ml), infected cells were seeded into 96-well plates at 5,000 cells/well.
(§2) To generate […] curves, cells were treated with vehicle (DMSO) or an eight-log serial dilution of drug to yield final concentrations of […]. Each treatment condition was represented by at least three replicates. Three to four days after drug addition, cell viability was measured using Cell Titer Glo® (Promega). Relative viability was then calculated by normalizing luminescence values for each treatment condition to control treated wells.
(§3) To generate GI50 curves for drug combinations, slight modifications are made. Primary drug was applied and diluted as above while the second drug was kept at a constant concentration across all wells except the DMSO-only condition. Viability for all primary drug dilutions was then calculated relative to luminescence values from the secondary drug-only condition. Dose-response curves were fit using Graph pad/Prism 6 software.

[2] = tested on: Set2 cells; assay: GI50 assay (Cell Titer Glo viability); format: cell-based, human; conditions: for sensitivity of parental and engineered Ras effector-activated cells (relative proliferation): Set2 ORF-expressing derivatives; for sensitization of resistant and parental Set2 cells to JAK inhibitors, co-inhibition of Akt and ERK pathways: MK-2206 plus AZD-6244 (2 μM) plus respective JAK inhibitor
Procedure: as §1, §2, §3

[3] = JAK inhibitor combined with ABT-737; cited from earlier work
[4] = tested on: BAD; assay: BAD phosphorylation immunoblot in HEL92.1.7 derivatives; format: cell-based, human; conditions: Ras (G12V)-transduced HEL92.1.7, 6 hours of treatment
Procedure: FIG. 10. BAD activity, governed by phosphorylation status at Ser 112 and 136, dictates drug sensitivity and induction of apoptosis in both the drug-sensitive and resistant state. (A-C) After 6 hours of treatment with the specified drugs, protein lysates were prepared from either myr-Akt-transduced HEL92.1.7 (A), Ras (G12V)-transduced HEL92.1.7 (B), Set2-Parental, or Set2-CYTR cells (C) and immunoblotted with the indicated antibodies. Blots are representative of three replicate experiments. […] (E, F) HEL92.1.7 derivatives stably expressing the indicated ORFs were transduced with a second ORF expressing either a second control vector or BAD2SA. (E) Twenty-four hours after selection, cells were stained with 7AAD and Annexin V to measure the induction of apoptosis. Error bars indicate SD of three replicate experiments.
Immunoblotting was performed as previously described (42) and membranes were probed with primary antibodies (1:1000 dilution) recognizing p-STAT5, STAT5, p-STAT3, STAT3, BAD, p-BAD Ser112, p-BAD Ser136, p-Akt (Thr308), Akt, p-ERK1/2 (Thr202/Tyr204), ERK1/2, Pim1, BCL-XL, BCL-2, MCL-1, Bim, Bax, Bak, NaATPase, and β-Actin. All antibodies were purchased from Cell Signaling Technology.

[5] = tested on: multiple JAK2^V617F cell lines; conditions: parental JAK2^V617F cell lines (HEL92.1.7 72 h, Set2 24 h)
Description: Error bars indicate SD of three replicate experiments. (B) Digitonin-permeabilized HEL92.1.7 cells transduced with the indicated constructs were stained with the mitochondrial potential-sensitive JC1 dye and treated with a panel of BH3 peptides. Percent depolarization is shown as the area under the curve (AUC) normalized to positive control fully depolarized mitochondria (FCCP). DMSO serves as the negative control. Data shown are representative of three independent experiments for each cell line derivative. (C) Same as in (B) except in this case the indicated JAK2^V617F positive cell lines were profiled to query their apoptotic dependencies. […] Blots are representative of three replicate experiments. (E) Twenty-four hours after transduction with the indicated ORFs, HMLE and HEL92.1.7 cells were stained with 7AAD and Annexin V to measure induction of apoptosis. Error bars indicate SD of three replicate experiments.
Cells were seeded in six-well plates and treated with either the indicated amount of drug or vehicle (DMSO). Cells were incubated for the indicated time, washed twice with ice-cold PBS, and resuspended in IX Annexin V binding buffer (10 mM HEPES, 140 mM NaCl, 2.5 mM CaCl2; BD Biosciences). Surface exposure of phosphatidylserine was measured using APC-conjugated Annexin V (BD Biosciences). […] Experiments were analyzed at 20,000 counts/sample using BD FACSVantage SE. […]

[6] = patients suffering from MPNs; cited from earlier work

## CC1(C)CCC(CN2CCN(c3ccc(C(=O)NS(=O)(=O)c4ccc(NCC5CCOCC5)c([N+](=O)[O-])c4)c(Oc4cnc5[nH]ccc5c4)c3)CC2)=C(c2ccc(Cl)cc2)C1 [ABT-199]
[1]
  sensitivity of parental and engineered Ras effector-activated cells (viability and apoptosis): insensitive
[2]
  sensitivity of parental and engineered Ras effector-activated cells (relative proliferation): insensitive

## CN(C)CC[C@H](CSc1ccccc1)Nc1ccc(S(=O)(=O)NC(=O)c2ccc(N3CCN(Cc4ccccc4-c4ccc(Cl)cc4)CC3)cc2)cc1[N+](=O)[O-] [ABT-737]
[1]
  sensitivity of parental and engineered Ras effector-activated cells (viability and apoptosis): sensitive
[2]; Set2-INCBR and Set2-CYTR vs Set2-Parental
  sensitivity of independently evolved JAK inhibitor-resistant cells compared to matched parental cells: equally sensitive
[2]
  sensitivity of parental and engineered Ras effector-activated cells (relative proliferation): sensitive
[3]
  responses relative to JAK inhibitor monotherapy: improved responses

## Cn1cnc2c(F)c(Nc3ccc(Br)cc3Cl)c(C(=O)NOCCO)cc21 [AZD-6244]
[2]
  sensitization of resistant and parental Set2 cells to JAK inhibitors, co-inhibition of Akt and ERK pathways: further sensitized

## N#CC[C@H](C1CCCC1)n1cc(-c2ncnc3[nH]ccc23)cn1 [INCB]
[4]
  BAD phosphorylation at Ser 112 and 136 in Ras-expressing cells: remained phosphorylated
[5]
  induction of apoptosis (Annexin-V staining): induces apoptosis
[6]
  patients with transient reduction of spleen size and alleviation of some symptoms: about 50 % of patients

## NC1(c2ccc(-c3nc4ccn5c(=O)[nH]nc5c4cc3-c3ccccc3)cc2)CCC1 [MK-2206]
[1]; INCB plus second drug at constant concentration (MK-2206 10 μM; BEZ-235 0.2 μM)
  resensitization of Akt-expressing cells to INCB: fully resensitized
[1]
  resensitization of Ras-expressing cells to INCB, dual ERK and Akt inhibition: resensitized
[2]; Akt inhibition with MK-2206 plus respective JAK inhibitor, compared with parental GI50 values
  resensitization of Set2-CYTR and Set2-INCBR cells to JAK inhibitors: resensitized
[2]
  sensitization of resistant and parental Set2 cells to JAK inhibitors, co-inhibition of Akt and ERK pathways: further sensitized

## Cc1cnc(Nc2ccc(F)cc2Cl)nc1-c1c[nH]c(C(=O)N[C@H](CO)c2cccc(Cl)c2)c1 [VX-11E]
[1]
  resensitization of Ras-expressing cells to INCB, dual ERK and Akt inhibition: resensitized
